{
  "source": "paper PMC5142287",
  "about": "“Weight control interventions improve therapeutic efficacy of dacarbazine in melanoma by reversing obesity-induced drug resistance” (Cancer & Metabolism, 2016)",
  "key": {"[1]": {"tested_on": "FASN, P-gp, Cav-1, pAkt, PCNA, and cyclin D1", "test": "Western blot of tumor lysates of B16F10-isografted mice", "type": "in vivo, C57BL/6J mice", "procedure": "Melanoma tumor samples or cells were washed three to five times with ice-cold PBS and lysed in ice-cold RIPA lysis buffer as described previously. Briefly, the samples were centrifuged at 12000 RPM for 40 min and clear supernatants were stored at −80 °C. Protein concentrations were determined by Coomassie Plus Protein Assay Reagent (Thermo Scientific, IL, USA). Equal amounts of protein samples (50–100 μg) were resolved on 8–10% SDS-polyacrylamide gel and then transferred onto PVDF membrane (Millipore, MA, USA). […] After washing, the membranes were incubated with HRP-conjugated secondary antibodies (1:2000) and blots were developed using luminescence detection reagents (Santa Cruz Biotechnology, CA, USA)."}, "B16F10 melanoma": {"tested_on": "B16F10 melanoma", "test": "B16F10 melanoma isograft in HFD (obese) C57BL/6J mice: tumor growth and survival", "type": "in vivo", "procedure": "To study the impact of diet-induced obesity on the outcome of DTIC therapy in melanoma, we treated B16F10 melanoma isografted obese mice with DTIC purchased from Sigma, USA (80 mg/kg intraperitoneally for five consecutive days as described previously). In addition, to look into the impact of weight loss interventions on the outcome of DTIC therapy in obese mice, mice were administered with orlistat (an antiobesity drug known to inhibit gastrointestinal lipases) and/or shifted from high fat to normal diet followed by DTIC treatment. The detailed experimental plan is illustrated in Fig. 1a. Briefly, obese mice were administered orally with orlistat (10 mg/kg on every alternate day) purchased from Enzo Life Sciences, NY, USA, and/or shifted from high fat diet to normal diet. HFD C57BL/6J mice treated with vehicle or orlistat were termed as HFD-HFD Ctrl and HFD-HFD Orli (N = 11 per each group), respectively, whereas HFD C57BL/6J mice shifted to normal diet and treated with vehicle or orlistat were grouped as HFD-ND Ctrl and HFD-ND Orli (N = 11 per each group), respectively. After 15 days, these mice were injected subcutaneously (s.c.) with B16F10 cells (2 × 10^5) in 100 μl of PBS and monitored daily for the presence of palpable tumors and dimensions were recorded on alternate days. […] Tumor volume was calculated using the formula 0.52 × length × width^2 and was followed up throughout the study."}, "metastatic melanoma": {"tested_on": "metastatic melanoma", "set-up": "method as in PMID 10840932", "conditions": "cited from earlier work"}, "B16F1 cells": {"tested_on": "B16F1 cells", "test": "Long-term survival assay, B16F1 cells in serum from experimental mice", "type": "cell-based, Murine", "from_the_text": "Additional file 1: Table S1. Composition of diets used in the study. Normal diet (ND) was procured from Amrut Laboratory Animal Feed, Pune, India, and high fat diet (HFD) was purchased from Provimi Animal Nutrition Pvt. Ltd., Bangalore, India. *, HFD was also supplemented with 400 g groundnut and 200 g dried coconut per kg body weight of mice. […] Obesity-associated parameters in the experimental ND mice recorded at the end of the experiment. ND male C57BL/6J mice were divided into two major groups. One group was orally treated with orlistat every alternate day before inoculating with B16F10 cells. The second group was orally given vehicle control on every alternate day for 8 weeks. Mice from both the groups (N = 11 per each group) were injected (s.c.) with B16F10 cells (2 × 10^5 cells/mouse in 100 μl PBS). Their body weight was monitored weekly throughout the study, and serum was collected at the end of the experiment. Blood glucose, serum TG, serum cholesterol, serum-free fatty acids, and serum LDLc were measured. Serum factors including leptin, adiponectin, insulin, resistin, IL-6, and TNF-α were estimated by ELISA. […] Effect of obesity-associated serum factors on the protein level of P-gp, Cav-1, and FASN in B16F1 cells. […] The data were recorded using Zeiss LSM510 META Confocal Microscope. […] Data were acquired on FACS Calibur and analyzed using BD CellQuest Pro software. […]"}, "B16F10 cells [2]": {"tested_on": "B16F10 cells", "test": "MTT assay, B16F10 cells grown in conditioned medium from 3T3-L1 cells", "conditions": "for IC50: Mus musculus, 10 days, DTIC 48 h, MTT"}, "B16F10 cells [3]": {"tested_on": "B16F10 cells", "test": "MTT assay, B16F10 cells grown in medium with 5% serum of ND or HFD mice", "conditions": "for IC50: Mus musculus, cells grown 10 days, DTIC 48 h, MTT"}, "B16F10 cells [4]": {"tested_on": "B16F10 cells", "test": "Long-term survival assay, B16F10 cells in serum from experimental mice", "type": "cell-based, Murine", "procedure": "After 24 h, DMEM containing 5% serum collected from experimental C57BL/6J mice (as illustrated in Fig. 1) was added and cells were cultured chronically for 10 days."}, "[5]": {"conditions": "serum from orlistat-treated or diet-shifted obese mice, DTIC at 1415 μM"}},
  "data": [
    {"molecule": "CN(C)/N=N/c1[nH]cnc1C(N)=O", "note": "[DTIC, Dacarbazine]", "values": [
      {"measurement": "Level of P-gp in tumors", "setting": "[1]; HFD mice", "result": "further increased"},
      {"measurement": "Protein levels of cyclin D1 and PCNA in tumors", "setting": "[1]; HFD mice", "result": "increase"},
      {"measurement": "Cav-1 levels in tumors", "setting": "[1]; HFD mice treated with DTIC", "result": "elevated"},
      {"measurement": "FASN level in tumors", "setting": "[1]; HFD mice treated with DTIC", "result": "further increased"},
      {"measurement": "Level of P-gp in tumors", "setting": "[1]; ND mice", "result": "reduced"},
      {"measurement": "Protein levels of cyclin D1 and PCNA in tumors", "setting": "[1]; ND mice", "result": "reduced levels"},
      {"measurement": "FASN and Cav-1 level in tumors", "setting": "[1]; ND mice treated with DTIC", "result": "much lower"},
      {"measurement": "Survivability of tumor-bearing mice", "setting": "B16F10 melanoma; HFD mice", "result": 60, "unit": "days"},
      {"measurement": "Survival of tumor-bearing mice", "setting": "B16F10 melanoma; HFD mice", "result": "reduced"},
      {"measurement": "Survivability increase", "setting": "B16F10 melanoma; tumor-bearing HFD mice under weight control by orlistat treatment or diet shifting, DTIC therapy", "result": 40, "unit": "%"},
      {"measurement": "Overall response rate", "setting": "metastatic melanoma", "result": "20–25%"},
      {"measurement": "Increase of sensitivity to DTIC", "setting": "B16F1 cells; HFD serum, FASN, Cav-1 and P-gp simultaneously inhibited", "result": "approximately 80%"},
      {"measurement": "Reduction of cell survival", "setting": "B16F1 cells; [5]", "result": "~75", "unit": "%"},
      {"measurement": "Increase of concentration for 50% cell killing, CM of differentiated adipocytes vs preadipocytes", "setting": "B16F10 cells [2]; B16F10 cells", "result": "~ 5 fold"},
      {"measurement": "IC50", "setting": "B16F10 cells [2]; B16-F10, CM from differentiated adipocytes (ID)", "result": 3.25, "unit": "mM"},
      {"measurement": "IC50", "setting": "B16F10 cells [2]; B16-F10, CM from undifferentiated preadipocytes (PA)", "result": 0.649, "unit": "mM"},
      {"measurement": "Increase of IC50 in HFD serum vs ND serum", "setting": "B16F10 cells [3]; B16F10 cells", "result": "~ 5 fold"},
      {"measurement": "IC50", "setting": "B16F10 cells [3]; B16-F10, HFD serum (5%)", "result": 6.69, "unit": "mM"},
      {"measurement": "IC50", "setting": "B16F10 cells [3]; B16-F10, ND serum (5%)", "result": 1.42, "unit": "mM"},
      {"measurement": "Increase of sensitivity to DTIC", "setting": "B16F10 cells [4]; HFD serum, FASN, Cav-1 and P-gp simultaneously inhibited (cerulenin, methyl β-cyclodextrin, verapamil)", "result": "approximately 80%"},
      {"measurement": "Reduction of cell survival", "setting": "B16F10 cells [4]; [5]", "result": "approximately 70%"}
    ]}
  ]
}
